Source: PubChem BioAssay AID248 (DTP/NCI, 2004)
“And” between values parts separate entries of the source, which are not always exact repeats. Equal values may be shown once. Inconclusive results and toxic doses are left out.

Tested on: L1210 leukemia ip in BDF1 mice, survival T/C
Assay: NCI In Vivo Anticancer Drug Screen. Data for tumor model L1210 Leukemia (intraperitoneal) in B6D2F1 (BDF1) mice
Conditions: endpoint: mean survival time, higher = longer survival
How it was run: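 Transplantable tumor model; survival measured in treated vs vehicle control mice. Value = treated/control.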

Structure (SMILES): CC(=O)NC(CCC(=O)C=[N+]=N)C(=O)O (stereo not given)
- T/C (dose: 0.1 mg/kg/injection, schedule: Q01DX009 (ip), vehicle: other): 98 % of control and 100 % of control and 101 % of control
- T/C (dose: 0.2 mg/kg/injection, schedule: Q01DX009 (ip), vehicle: other): 105 % of control and 116 % of control (2×)
- T/C (dose: 0.2 mg/kg/injection, schedule: Q01DX015 (ip), vehicle: saline): 108 % of control
- T/C (dose: 0.4 mg/kg/injection, schedule: Q01DX001 (ip), vehicle: saline): 106 % of control
- T/C (dose: 0.4 mg/kg/injection, schedule: Q01DX009 (ip), vehicle: other): 100 % of control
- T/C (dose: 0.4 mg/kg/injection, schedule: Q01DX015 (ip), vehicle: saline): 120 % of control
- T/C (dose: 0.5 mg/kg/injection, schedule: Q01DX001 (ip), vehicle: other): 109 % of control
- T/C (dose: 0.5 mg/kg/injection, schedule: Q01DX001 (ip), vehicle: saline): 113 % of control
- T/C (dose: 0.5 mg/kg/injection, schedule: Q04DX003 (ip), vehicle: other): 113 % of control
- T/C (dose: 0.5 mg/kg/injection, schedule: Q08DX002 (ip), vehicle: other): 106 % of control
- T/C (dose: 0.6 mg/kg/injection, schedule: Q01DX001 (ip), vehicle: saline): 110 % of control
- T/C (dose: 0.6 mg/kg/injection, schedule: Q01DX015 (ip), vehicle: saline): 123 % of control
- T/C (dose: 0.8 mg/kg/injection, schedule: Q01DX009 (ip), vehicle: other): 119 % of control
- T/C (dose: 1.0 mg/kg/injection, schedule: Q01DX001 (ip), vehicle: other): 106 % of control
- T/C (dose: 1.0 mg/kg/injection, schedule: Q01DX009 (ip), vehicle: other): 122 % of control
- T/C (dose: 1.0 mg/kg/injection, schedule: Q01DX015 (ip), vehicle: saline): 121 % of control
- T/C (dose: 1.0 mg/kg/injection, schedule: Q04DX003 (ip), vehicle: other): 120 % of control
- T/C (dose: 1.0 mg/kg/injection, schedule: Q08DX002 (ip), vehicle: other): 109 % of control
- T/C (dose: 1.5 mg/kg/injection, schedule: Q01DX001 (ip), vehicle: saline): 114 % of control
- T/C (dose: 2.0 mg/kg/injection, schedule: Q01DX001 (ip), vehicle: other): 111 % of control
- T/C (dose: 2.0 mg/kg/injection, schedule: Q01DX001 (ip), vehicle: saline): 122 % of control
- T/C (dose: 2.0 mg/kg/injection, schedule: Q01DX009 (ip), vehicle: other): 96 % of control
- T/C (dose: 2.0 mg/kg/injection, schedule: Q04DX003 (ip), vehicle: other): 120 % of control
- T/C (dose: 2.0 mg/kg/injection, schedule: Q08DX002 (ip), vehicle: other): 111 % of control
- T/C (dose: 4.0 mg/kg/injection, schedule: Q01DX001 (ip), vehicle: saline): 112 % of control
- T/C (dose: 4.0 mg/kg/injection, schedule: Q04DX003 (ip), vehicle: other): 117 % of control
- T/C (dose: 5.0 mg/kg/injection, schedule: Q01DX001 (ip), vehicle: other): 111 % of control
- T/C (dose: 5.0 mg/kg/injection, schedule: Q03HX008 (ip), vehicle: other): 117 % of control
- T/C (dose: 5.0 mg/kg/injection, schedule: Q03HX024 (ip), vehicle: other): 150 % of control
- T/C (dose: 5.0 mg/kg/injection, schedule: Q08DX002 (ip), vehicle: other): 121 % of control
- T/C (dose: 10.0 mg/kg/injection, schedule: Q01DX001 (ip), vehicle: other): 122 % of control
- T/C (dose: 10.0 mg/kg/injection, schedule: Q03HX008 (ip), vehicle: other): 118 % of control
- T/C (dose: 10.0 mg/kg/injection, schedule: Q03HX024 (ip), vehicle: other): 187 % of control
- T/C (dose: 16.0 mg/kg/injection, schedule: Q01DX001 (ip), vehicle: saline): 117 % of control
- T/C (dose: 20.0 mg/kg/injection, schedule: Q03HX008 (ip), vehicle: other): 110 % of control
- T/C (dose: 20.0 mg/kg/injection, schedule: Q03HX024 (ip), vehicle: other): 172 % of control
- T/C (dose: 32.0 mg/kg/injection, schedule: Q01DX001 (ip), vehicle: saline): 118 % of control
- T/C (dose: 40.0 mg/kg/injection, schedule: Q03HX008 (ip), vehicle: other): 121 % of control
- T/C (dose: 40.0 mg/kg/injection, schedule: Q03HX016 (ip), vehicle: other): 150 % of control
- T/C (dose: 40.0 mg/kg/injection, schedule: Q03HX024 (ip), vehicle: other): 112 % of control

Structure (SMILES): CC(=O)OCCOc1ccc([N+](=O)[O-])cc1
- T/C (dose: 100.0 mg/kg/injection, schedule: Q04DX003 (ip), vehicle: saline with Tween-80): 102 % of control
- T/C (dose: 200.0 mg/kg/injection, schedule: Q04DX003 (ip), vehicle: saline with Tween-80): 102 % of control
- T/C (dose: 400.0 mg/kg/injection, schedule: Q04DX003 (ip), vehicle: saline with Tween-80): 103 % of control

Structure (SMILES): CCOC(=O)/C=C/C(=O)O.[Zn+2]
- T/C (dose: 12.5 mg/kg/injection, schedule: Q04DX003 (ip), vehicle: saline): 96 % of control and 91 % of control
- T/C (dose: 50.0 mg/kg/injection, schedule: Q04DX003 (ip), vehicle: saline): 96 % of control

Structure (SMILES): c1ccc(CN2CCCCC2)nc1
- T/C (dose: 10.0 mg/kg/injection, schedule: Q01DX009 (ip), vehicle: Klucel (hydroxypropylcellulose) (HPC)): 103 % of control
- T/C (dose: 10.0 mg/kg/injection, schedule: Q04DX003 (ip), vehicle: Klucel (hydroxypropylcellulose) (HPC)): 92 % of control
- T/C (dose: 20.0 mg/kg/injection, schedule: Q01DX009 (ip), vehicle: Klucel (hydroxypropylcellulose) (HPC)): 91 % of control
- T/C (dose: 20.0 mg/kg/injection, schedule: Q04DX003 (ip), vehicle: Klucel (hydroxypropylcellulose) (HPC)): 97 % of control
- T/C (dose: 40.0 mg/kg/injection, schedule: Q04DX003 (ip), vehicle: Klucel (hydroxypropylcellulose) (HPC)): 97 % of control

Structure (SMILES): Oc1ccc(O)c2c1C1(Cl)C(Cl)=C(Cl)C2(Cl)C1(Cl)Cl
- T/C (dose: 100.0 mg/kg/injection, schedule: Q04DX003 (ip), vehicle: other): 101 % of control
- T/C (dose: 200.0 mg/kg/injection, schedule: Q04DX003 (ip), vehicle: other): 101 % of control
- T/C (dose: 400.0 mg/kg/injection, schedule: Q04DX003 (ip), vehicle: other): 108 % of control

Structure (SMILES): CCN1C(=O)C2C3C=CC(C3)C2C1=O (stereo not given)
- T/C (dose: 25.0 mg/kg/injection, schedule: Q04DX003 (ip), vehicle: saline with Tween-80): 97 % of control
- T/C (dose: 50.0 mg/kg/injection, schedule: Q04DX003 (ip), vehicle: saline with Tween-80): 104 % of control
